The subject of assay [1] is purine nucleosidase. Description: Substrate specificity of purine nucleosidase by thin-layer chromatography. It counts as biochemical, Ochrobactrum anthropi. The settings on record: for decomposition of purine nucleosides (in words): pH 5.5 and 60° C.; for Relative activity: thin-layer chromatography. How it is done:
(§1) The reaction solution (200 μl) contained 0.5 mM of adenosine or inosine or 0.25 mM of guanosine as the substrate, 50 mM of acetate buffer at pH 4.5 and a sufficient amount of enzyme. The reaction was initiated by addition of the enzyme, and the reaction was conducted at 50° C. for 5 minutes. The reaction was terminated by addition of 20 μl of 15% perchloric acid, and after centrifugation (35,000 rpm, 10 min) the supernatant was analyzed qualitatively by thin-layer chromatography (TLC) and quantitatively by high-performance liquid chromatography. The analysis methods were as follows.
(1) Thin-layer chromatography
Plate: Kieselgel 60F254 (Merk)
Developing solution: n-butanol/isopropanol/H2 O/NH4 OH=1:7:2:0.2 (v/v/v/v) (for adenosine and guanosine substrates), n-butanol/acetic acid/H2 O=5:1:1 (v/v/v) (for inosine substrate)
The substrate specificity of the purine nucleosidase was determined by thin-layer chromatography (TLC).
(§2) The specific activity was measured under conditions of 50° C., pH 4.5. The Km and Vmax were measured under conditions of 30° C., pH 4.5. The relative activity was expressed according to the following measurement method.

Assay [2] relates to Active fraction 1 (purine nucleosidase activity). The experiment in a line: Purine nucleosidase activity of active fraction 1 (1st DEAE-Sephacel). It counts as biochemical, Ochrobactrum anthropi. The protocol: After suspending 20 g of the wet cells in 40 ml of 10 mM Tris-HCl buffer solution (pH 7.4) (hereunder referred to as "buffer"), they were disrupted in a Dynamill at 4° C. for 10 minutes. After filtering the disrupted cell suspension it was centrifuged (10,000 rpm, 60 min) and the supernatant was used as a cell-free extract. The cell-free extract (250 ml) was dialyzed for 12 hours against 5 L of buffer and then applied to a DEAE-Sephacel column (3×30 cm, 200 ml) which had been equilibrized with the buffer. The adsorbed protein was eluted with an NaCl concentration gradient from 0 to 1.0 M and the active fractions were recovered.
The purine nucleosidase activity at this time was split into two peaks (FIG. 1). Fraction nos. 46 to 69 were collected as the first active fraction and fraction nos. 85 to 101 were collected as the second active fraction.
as §1

The subject of assay [3] is Bacillus cereus nucleosidase. Description: Bacillus cereus nucleosidase, cell extracts. It is filed as biochemical. The settings on record: studies by the present inventors. The source says:
Based on studies by the present inventors using cell extracts, the activity against guanosine is low. Crithidia fasciculata nucleosidase has a high optimum pH of 8.5. Wort also contains various low molecular substances, sugars and proteins, and it has not yet been investigated whether known nucleosidases can actually act on them. Therefore, we screened natural sources for microorganism-derived purine nucleosidases which can utilize adenosine, inosine and guanosine as substrates under conditions of pH 5.0 to 5.5, 50 to 80° C. As a result, high purine nucleosidase activity was found in crushed cell solutions of Ochrobactrum anthropi.

Assay [4] concerns purine nucleosidase. The experiment in a line: Specific activity, Km and Vmax of purine nucleosidase. It is filed as biochemical, Ochrobactrum anthropi. The settings on record: pH 4.5; for Km / Vmax: 30° C.; for Specific activity: 50° C. The protocol: as §1
(2) High-performance liquid chromatography
Eluent: 0.1 M sodium chlorate tetrahydrate, 0.1% (v/v) phosphoric acid
as §2

The test system of assay [5] is Active fraction 2 (purine nucleosidase activity). Description: Purine nucleosidase activity of active fraction 2 (1st DEAE-Sephacel). It is filed as biochemical, Ochrobactrum anthropi.
Assay [6] relates to Aspergillus niger nucleosidase. The following applies: cited from earlier work.

One may read the Km as the concentration of substrate that gives half-maximal velocity. By Vmax is commonly meant the rate approached at saturating substrate. Regarding `Nc1nc2c(ncn2[C@@H]2O[C@H](CO)[C@@H](O)[C@H]2O)c(=O)[nH]1` [guanosine], in the assay with purine nucleosidase [1], the “decomposition of purine nucleosides (in words)” value was “capable of decomposing” and the Relative activity result is reported as “++++ (>50%)”. Besides, the “Specific activity, Active fraction 1” value in assay [2] (30° C.) is 0.44 µmol/min/mg. In assay [2] (50° C.), the “Specific activity, Active fraction 1” value came out at 1.5 µmol/min/mg. Moreover, in assay [3], the “activity against substrate (in words)” value is reported as “low”. Further, in the assay on purine nucleosidase [4], the Km came to 53.9 µM, the Vmax stood at 11.5 µmol/min/mg and the Specific activity is 63.3 µmol/min/mg. For the same compound, the “Specific activity, Active fraction 2” value in assay [5] (30° C.) amounted to 0.33 µmol/min/mg. Also, the “Specific activity, Active fraction 2” value in assay [5] (50° C.) worked out at 0.26 µmol/min/mg.

Regarding `OC[C@H]1O[C@@H](n2cnc3c(O)ncnc32)[C@H](O)[C@@H]1O` [inosine], in the assay on purine nucleosidase [1], the “decomposition of purine nucleosides (in words)” value was “capable of decomposing” and the Relative activity result is recorded as “++++ (>50%)”. The “Specific activity, Active fraction 1” value in assay [2] (30° C.) was determined as 1.02 µmol/min/mg. Also, the “Specific activity, Active fraction 1” value in assay [2] (50° C.) came to 4.3 µmol/min/mg. Also, in the assay on purine nucleosidase [4], the Km came out at 29.6 µM, the Vmax is 18.8 µmol/min/mg and the Specific activity is 177 µmol/min/mg. Further, the “Specific activity, Active fraction 2” value in assay [5] (30° C.) turned out to be 0.63 µmol/min/mg. For the same compound, the “Specific activity, Active fraction 2” value in assay [5] (50° C.) amounted to 0.44 µmol/min/mg.

Regarding `Nc1ncnc2c1ncn2[C@@H]1O[C@H](CO)[C@@H](O)[C@H]1O` [adenosine], in the assay with purine nucleosidase [1], the “decomposition of purine nucleosides (in words)” value is on record as “capable of decomposing” and the Relative activity result is given as “++++ (>50%)”. The “Specific activity, Active fraction 1” value in assay [2] (30° C.) amounted to 0.70 µmol/min/mg. The “Specific activity, Active fraction 1” value in assay [2] (50° C.) is 3.6 µmol/min/mg. Also, in the assay with purine nucleosidase [4], the Km stood at 17.1 µM, the Vmax is 28.5 µmol/min/mg and the Specific activity came to 292 µmol/min/mg. For the same compound, the “Specific activity, Active fraction 2” value in assay [5] (30° C.) turned out to be 0.59 µmol/min/mg. For the same compound, the “Specific activity, Active fraction 2” value in assay [5] (50° C.) stood at 0.45 µmol/min/mg.

Consider `O=c1[nH]c(=O)c2ncn([C@@H]3O[C@H](CO)[C@@H](O)[C@H]3O)c2[nH]1` [xanthosine], for which, in the assay on purine nucleosidase [1], the “decomposition of purine nucleosides (in words)” value is given as “capable of decomposing” and the Relative activity entry is on record as “++++ (>50%)”. In assay [6], the “decomposition of substrate (in words)” value is “cannot decompose”. In the assay on purine nucleosidase [4], the Km is 63.8 µM and the Vmax is 68 µmol/min/mg.

The values above are taken from patent US6066484A, “Purine nucleosidase” (Suntory Limited, priority 1996, dated 2000).
